According to patent US6794491B1, “Polypeptides, their production and use” (Takeda Chemical Industries, Ltd., priority 1995, dated 2004):
“Also recorded” adds a separate entry of the source. Where no end group is shown, it is not given here.

How the values were obtained:
[1] = biological target: T1, full-length receptor protein expressed CHO cells (CHO-19P2); human pituitary receptor protein (hGR3) (Homo sapiens, UniProt P49683); test: release of arachidonic acid metabolites from CHO-19P2 cells; type: cell-based; details: amount of [3H]arachidonic acid metabolites, 10^−12 M-10^−6 M in 0.05% BSA-HBSS
T1 construct: to construct a full-length receptor protein expression plasmid pAKKO-19P2; expressed in transfected cells; host or cells: CHO dhfr- cells transfected with pAKKO-19P2 (CHO-19P2; clone CHO-19P2-9)
T1 sequence (P49683 1-370): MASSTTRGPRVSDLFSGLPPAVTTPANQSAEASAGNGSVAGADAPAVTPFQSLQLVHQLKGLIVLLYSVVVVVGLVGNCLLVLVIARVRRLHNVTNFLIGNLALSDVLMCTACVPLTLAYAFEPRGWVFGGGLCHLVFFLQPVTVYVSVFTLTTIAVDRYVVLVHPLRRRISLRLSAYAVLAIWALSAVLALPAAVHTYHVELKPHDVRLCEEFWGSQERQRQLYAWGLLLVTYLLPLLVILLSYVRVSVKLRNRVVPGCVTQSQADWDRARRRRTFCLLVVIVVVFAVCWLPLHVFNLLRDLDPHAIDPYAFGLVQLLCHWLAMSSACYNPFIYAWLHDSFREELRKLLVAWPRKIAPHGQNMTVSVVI
Method: The full-length receptor protein-expressed CHO cells and mock CHO cells were seeded in a 24-well plate, 0.5×10^5 cells/well, and cultured for 24 hours. Then, [^3H] arachidonic acid was added at a final concentration of 0.25 μCi/well. Sixteen (16) hours after addition of [^3H] arachidonic acid, the cells were rinsed with 0.05% BSA-HBSS and the above-mentioned crude peptide fraction was added, 400 μl/well. The mixture was incubated at 37° C. for 30 minutes and a 300 μl portion of the reaction mixture (400 μl) was added to 4 ml of a scintillator and the amount of [^3H] arachidonic acid metabolite released into the reaction mixture was determined with a scintillation counter.
The activity of the peptide (19P2-L31) synthesized in Example 21 to specifically release arachidonic acid metabolites from CHO-19P2 cells was assayed in the same manner as Example 11. The synthetic peptide was dissolved in degassed dH20 at a concentration of 10^−3M and diluted with 0.05% BSA-HBSS and the activity to promote release of arachidonic acid metabolites from CHO-19P2 cells at each concentration was assayed using the amount of [^3H]arachidonic acid metabolites as the indicator.
The activity of the synthetic equivalent (19P2-L20) of natural peptide P-2 as synthesized in Example 23 to specifically promote release of arachidonic acid metabolites from CHO-19P2 cells was determined as in Example 11. Thus, the synthetic peptide was dissolved in degassed dH2O at a final concentration of 10^−3M and this solution was serially diluted with 0.05% BAS-HBSS. The activity to specifically promote release of arachidonic acid metabolites from CHO-19P2 cells at each concentration was assayed using the amount of [^3H]arachidonic acid metabolites as the indicator.

[2] = glucose-induced increase in plasma insulin concentration; type: in vivo, Male Wistar rats; details: bolus injection in the jugular vein with glucose 86 mg/rat
Method: Male Wistar rats (8-10w) were anesthetized by i.p. injection of pentobarbital (65 mg/kg). Glucose alone (86 mg/rat) or glucose and 19P2-L31 (675 pmol, 2.25 nmol, 6.75 nmol and 67.5 nmol/rat) were administered by bolus injection in the jugular vein. Blood samples were withdrawn from the contralateral vein. Plasma insulin concentration was determined with a radioimnunoassay kit (Amersham).

[3] = plasma pituitary hormone level after administration into the third ventricle, pentobarbital anesthesia; type: in vivo, male Wistar rats
Method: The inventors explored the effect of 19P2-L31 administered into the third ventricle on pituitary hormone levels in the plasma. Mature male Wistar rats (body weights at operation: 290-350 g) were anesthetized with pentobarbital, 50 mg/kg i.p., and each immobilized in a rat brain stereotaxic apparatus. The incisor bar was set 3.3 mm lower from the interaural line. The skull was exposed, and using a dental drill a hole was made on the bone for implantation of a guide cannula. In addition, an anchor screw was buried in one position around the hole. A stainless-steel guide cannula, AG-12 (0.4 mm in. dia., 0.5 mm out. dia., EICOM), was inserted in such a manner that its tip would be situated in the upper part of the third ventricle. With reference to the atlas of Paxinos and Watson (1986), the stereotaxic coordinates were AP: +7.2 mm (from interaural line), L: 0.0 mm, and H: +2.0 mm (from interaural line). The guide cannula was secured to the skull using an instant adhesive, a dental cement, and an anchor piece. A stainless-steel dummy cannula, AD-12 (0.35 mm out. dia., EICOM), was then passed through the guide cannula and locked in position with a cap nut (EICOM). After the operation the rats were housed in individual cages and kept for at least 3 days for recuperation before starting the experiment.
The operated rat was anesthetized with pentobarbital 50 mg/kg i.p. and immobilized in dorsal position. After the bilateral jugular veins were exposed, 400 μl of blood was drawn using a 1 ml tuberculin syringe and a 24-G needle (both by Termo). To prevent clotting, the syringe was filled with 20 μl of saline containing 200 U/ml of heparin beforehand. The cap nut and dummy cannula were removed from the rat skull and, instead, a stainless steel microinjection cannula (0.17 mm in. dia., 0.35 mm out. dia., EICOM) connected to Teflon tube (50 cm long, 0.1 mm in. dia., 0.4 mm out. dia., EICOM) was inserted. The length of the microinjection cannula was adjusted beforehand so that its tip would be emergent from the guide cannula by 1 mm. One end of the Teflon tube was connected to a microsyringe pump and either PBS or 19P2-L31 dissolved in PBS was injected, in a total volume of 10 μl, into the third ventricle at a flow rate of 2.5 μl/min. After a standby time of 1 minute following infusion, the microinjection cannula was disconnected and the dummy cannula was reinstated and locked in position with a cap nut. Immediately before initiation of intraventricular administration and 10, 20, 30, 40, and 60 minutes after initiation of administration, 400 μl portions of blood were drawn from the jugular vein. Each blood sample was centrifuged (5,000 rpm, 10 min.) with a high-speed refrigerated microcentrifuge (MR-150, Tommy Seiko) and the supernatant (plasma) was recovered. The amounts of pituitary hormones [prolactin, luteinizing hormone (LH), adrenocorticotropic hormone (ACTH), thyroid-stimulating hormone (TSH), and growth hormone (GH)] in the plasma were respectively determined by radioimmunoassays.
The results were expressed as a mean±S.E.M. To test for significant difference between the group treated with 19P2-L31 dissolved in PBS and the control group treated with PBS alone, Student's t-test was used. According to the two-tailed test, p<0.05 was assumed to be the minimal level of significance.

[4] = 50 nmol into the third ventricle, anesthetized rats

Ser-Arg-Ala-His-Gln-His-Ser-Met-Glu-Ile-Arg-Thr-Pro-Asp-Ile-Asn-Pro-Ala-Trp-Tyr-Ala-Gly-Arg-Gly-Ile-Arg-Pro-Val-Gly-Arg-Phe-NH2 (SRAHQHSMEIRTPDINPAWYAGRGIRPVGRF-NH2) [19P2-L31, synthetic ligand polypeptide]
arachidonic acid metabolite-releasing activity [1]: concentration-dependent arachidonic acid metabolite-releasing activity was detected over the range of 10^−12M-10^−6M; also recorded: found in a concentration-dependent manner | glucose-induced increase in plasma insulin concentration (first and second phase) ([2]; 675 pmol/rat): partially inhibited | glucose-induced increase in plasma insulin concentration (first and second phase) ([2]; 2.25 nmol/rat): partially inhibited | glucose-induced increase in plasma insulin concentration (first and second phase) ([2]; 6.75 nmol/rat): partially inhibited | glucose-induced increase in plasma insulin concentration (first and second phase) ([2]; 67.5 nmol/rat): completely inhibited | plasma ACTH [3, 4]: none showed significant changes | plasma LH [3, 4]: none showed significant changes | plasma TSH [3, 4]: none showed significant changes | plasma prolactin [3, 4]: none showed significant changes | plasma GH level ([3]; 50 nmol into the third ventricle, anesthetized rats, 10, 30, and 40 minutes after administration, not statistically significant): Tendencies toward decrease | plasma GH level ([3]; 50 nmol into the third ventricle, anesthetized rats, 20 minutes after administration, versus control): significantly decreased | plasma GH level ([3]; 50 nmol into the third ventricle, anesthetized rats, 60 minutes after administration): no difference from the control group | plasma growth hormone level ([3]; injected into the third ventricle of rats, summary): depressed
